Results on 77 molecules are retold here after the RepoRT retention time repository (doi:10.1016/j.chroma.2019.01.023).

This data set is described as follows: HILIC, Merck SeQuant ZIC-pHILIC, 150 × 2.1 mm, 5 µm, 40 °C, 0.3 mL/min, estimated dead time 1.1 min; A: acetonitrile; B: water + 2.8 mM ammonium formate, pH 9; gradient (min/%B) 0/5 1/5 10/51 13/51 13.1/5 20/5. The following applies: stereoisomer not certain.

For the molecule `C=CC(=O)[O-]` [2-PROPENOATE], the LC retention time is 2.13 min. For `CC(O)(CC(=O)O)CC(=O)SCCNC(=O)CCNC(=O)C(O)C(C)(C)COP(=O)(O)OP(=O)(O)OCC1OC(n2cnc3c(N)ncnc32)C(O)C1OP(=O)(O)O` (configuration not stated) [3-HYDROXY-3-METHYLGLUTARYL-COA], the LC retention time was 9.96 min. For `CC(C)=CC(=O)SCCNC(=O)CCNC(=O)C(O)C(C)(C)COP(=O)(O)OP(=O)(O)OCC1OC(n2cnc3c(N)ncnc32)C(O)C1OP(=O)(O)O` (configuration not stated) [3-METHYLCROTONYL-COA], the LC retention time was 7.95 min. In the case of `O=C(O)C(O)COP(=O)(O)O` (configuration not stated) [3-PHOSPHOGLYCERATE], the LC retention time was 10.1 min. Then `NC(CS(=O)O)C(=O)O` (configuration not stated) [3-SULFINOALANINE], with 8.64 min; and `N[C@H](C(=O)O)c1ccc(O)cc1` [4-HYDROXY-L-PHENYLGLYCINE], with 9.02 min; and `NCC(=O)CCC(=O)O` [5-AMINOLEVULINATE], with 9.28 min.

As to `O=C(O)C(O)C(O)C(O)C(O)COP(=O)(O)O` (configuration not stated) [6-PHOSPHOGLUCONATE], the LC retention time is 10.3 min. Then `NCCP(=O)(O)O` [(2-AMINOETHYL)PHOSPHONATE], with 9.6 min; and `Nc1ncnc2c1ncn2C1OC(COP(=O)(O)OP(=O)(O)O)C(O)C1O` (configuration not stated) [ADENOSINE 5'-DIPHOSPHATE], with 9.46 min. As to `Nc1ncnc2c1ncn2C1OC(COP(=O)(O)OP(=O)(O)OCC2OC(O)C(O)C2O)C(O)C1O` (configuration not stated) [ADENOSINE DIPHOSPHATE RIBOSE], the LC retention time was 9.14 min. The figure for `Nc1ncnc2c1ncn2C1OC(COP(=O)(O)OP(=O)(O)OC2OC(CO)C(O)C(O)C2O)C(O)C1O` (configuration not stated) [ADP-GLUCOSE] is 9.12 min; for `O=C1OC(C(O)CO)C(O)=C1O` (configuration not stated) [ASCORBATE] it is 8.49 min. As for `O=C(O)c1ccccc1` [BENZOATE], the LC retention time was 1.41 min. Consider `O=P(O)(O)OC(CO)CO` [BETA-GLYCEROPHOSPHATE], for which the LC retention time is 8.57 min. The figure for `NCCOP(=O)(O)OP(=O)(O)OCC1OC(n2ccc(N)nc2=O)C(O)C1O` (configuration not stated) [CDP-ETHANOLAMINE] is 9.33 min.

On to `CC(C)(COP(=O)(O)OP(=O)(O)OCC1OC(n2cnc3c(N)ncnc32)C(O)C1OP(=O)(O)O)C(O)C(=O)NCCC(=O)NCCS` (configuration not stated) [COENZYME A], for which the LC retention time is 9.12 min. The figure for `NC(CS)C(=O)NCC(=O)O` (configuration not stated) [CYS-GLY] is 8.8 min; for `NC(CCSCC(N)C(=O)O)C(=O)O` (configuration not stated) [CYSTATHIONINE] it is 10.3 min. The figure for `NC(CS)C(=O)O` (configuration not stated) [CYSTEINE] is 10.2 min; for `NC(CSSCC(N)C(=O)O)C(=O)O` (configuration not stated) [CYSTINE] it is 10.3 min; for `Nc1ccn(C2OC(CO)C3OP(=O)(O)OC32)c(=O)n1` (configuration not stated) [CYTIDINE 2',3'-CYCLIC PHOSPHATE] it is 8.06 min. As for `Nc1ccn(C2OC(COP(=O)(O)OP(=O)(O)O)C(O)C2O)c(=O)n1` (configuration not stated) [CYTIDINE DIPHOSPHATE], the LC retention time is 10.2 min. Then `Nc1ccn(C2OC(COP(=O)(O)OP(=O)(O)OP(=O)(O)O)C(O)C2O)c(=O)n1` (configuration not stated) [CYTIDINE TRIPHOSPHATE], with 11.1 min; and `C[C@@H](N)C(=O)O` [D-ALANINE], with 5.74 min. Then `O=P(O)(O)OCC1OC(O)C(O)C1O` [D-RIBOSE 5-PHOSPHATE], with 9.19 min. As to `Nc1ncnc2c1ncn2C1CC(O)C(COP(=O)(O)OP(=O)(O)OP(=O)(O)O)O1` (configuration not stated) [DEOXYADENOSINE TRIPHOSPHATE], the LC retention time was 10.2 min. For `Nc1ccn(C2CC(O)C(COP(=O)([O-])OP(=O)([O-])[O-])O2)c(=O)n1` (configuration not stated) [DEOXYCYTIDINE-DIPHOSPHATE], the LC retention time was 9.8 min. The figure for `O=c1ccn(C2CC(O)C(COP(=O)(O)OP(=O)(O)OP(=O)(O)O)O2)c(=O)[nH]1` (configuration not stated) [DEOXYURIDINE TRIPHOSPHATE] is 10.5 min. Then `Nc1nc2c(ncn2C2CC(O)C(COP(=O)(O)OP(=O)(O)O)O2)c(=O)[nH]1` (configuration not stated) [DGDP], with 10.2 min.

Consider `Nc1nc2c(ncn2C2CC(O)C(COP(=O)(O)OP(=O)(O)OP(=O)(O)O)O2)c(=O)[nH]1` (configuration not stated) [DGTP], for which the LC retention time is 11.1 min.

As for `NC(CCCC(N)C(=O)O)C(=O)O` (configuration not stated) [DIAMINOPIMELATE], the LC retention time was 10.5 min.

Turning to `Nc1nc2c(c(=O)[nH]1)N=C(CNc1ccc(C(=O)NC(CCC(=O)O)C(=O)O)cc1)CN2` (configuration not stated) [DIHYDROFOLATE], the LC retention time was 8.81 min. Then `CNCC(O)c1ccc(O)c(O)c1` (configuration not stated) [EPINEPHRINE], with 2.03 min. Then `NCCOP(=O)(O)O` [ETHANOLAMINE PHOSPHATE], with 9.23 min. On to `O=C(CO)C(O)C(O)C(O)COP(=O)(O)O` (configuration not stated) [FRUCTOSE 6-PHOSPHATE], for which the LC retention time is 9.3 min.

With `O=P(O)(O)OCC1OC(O)(COP(=O)(O)O)C(O)C1O` (configuration not stated) [FRUCTOSE BISPHOSPHATE], the LC retention time was 10.9 min. With `CC(C)=CCCC(C)=CCOP(=O)(O)OP(=O)(O)O` [GERANYL-PP], the LC retention time is 8.32 min.

Turning to `O=C(O)C(O)C(O)C(O)C(O)CO` (configuration not stated) [GLUCONATE], the LC retention time was 8.5 min. On to `NC(C(=O)O)C(O)C(O)C(O)CO` (configuration not stated) [GLUCOSAMINATE], for which the LC retention time is 9.91 min.

For `NC1C(O)OC(COP(=O)(O)O)C(O)C1O` (configuration not stated) [GLUCOSAMINE 6-PHOSPHATE], the LC retention time is 10.2 min.

Turning to `NC(CCC(=O)O)C(=O)O` (configuration not stated) [GLUTAMATE], the LC retention time is 8.69 min.

In the case of `O=CC(O)COP(=O)(O)O` (configuration not stated) [GLYCERALDEHYDE 3-PHOSPHATE], the LC retention time is 6.24 min. Take `O=C(O)C(O)CO` (configuration not stated) [GLYCERATE]: the LC retention time was 7.98 min.

Consider `O=P(O)(O)OCC(O)CO` (configuration not stated) [GLYCEROL 3-PHOSPHATE], for which the LC retention time was 8.79 min. The figure for `Nc1nc2c(ncn2C2OC(COP(=O)(O)OP(=O)(O)OC3OC(CO)C(O)C(O)C3O)C(O)C2O)c(=O)[nH]1` (configuration not stated) [GUANOSINE DIPHOSPHATE MANNOSE] is 10.2 min. Regarding `Nc1nc2c(ncn2C2OC(COP(=O)(O)OP(=O)(O)O)C(O)C2O)c(=O)[nH]1` (configuration not stated) [GUANOSINE DIPHOSPHATE], the LC retention time was 10.5 min. In the case of `Nc1nc2c(ncn2C2OC(COP(=O)(O)OP(=O)(O)OP(=O)(O)O)C(O)C2O)c(=O)[nH]1` (configuration not stated) [GUANOSINE TRIPHOSPHATE], the LC retention time was 11.5 min. The figure for `NC(CCS)C(=O)O` (configuration not stated) [HOMOCYSTEINE] is 9.91 min; for `NC(CCSSCCC(N)C(=O)O)C(=O)O` (configuration not stated) [HOMOCYSTINE] it is 9.92 min; for `NCCS(=O)O` [HYPOTAURINE] it is 8.8 min.

Take `O=C(O)C(=O)Cc1c[nH]c2ccccc12` [INDOLE-3-PYRUVATE]: the LC retention time was 5.17 min. The figure for `O=c1[nH]cnc2c1ncn2C1OC(COP(=O)([O-])OP(=O)([O-])O)C(O)C1O` (configuration not stated) [INOSINE 5'-DIPHOSPHATE] is 9.98 min. Then `O=c1[nH]cnc2c1ncn2C1OC(COP(=O)(O)OP(=O)(O)OP(=O)(O)O)C(O)C1O` (configuration not stated) [INOSINE TRIPHOSPHATE], with 11 min; and `O=C(O)CC(C(=O)O)C(O)C(=O)O` (configuration not stated) [ISOCITRATE], with 10.5 min; and `C=C(C)CCOP(=O)(O)OP(=O)(O)O` [ISOPENTENYL PYROPHOSPHATE], with 8.52 min. Regarding `CC(O)C(=O)O` (configuration not stated) [LACTATE], the LC retention time was 1.54 min. The figure for `CS(=N)(=O)CCC(N)C(=O)O` (configuration not stated) [METHIONINE SULFOXIMINE] is 9.03 min; for `COC(=O)c1ccc(O)c(OC)c1` [METHYL VANILLATE] it is 1.47 min. Then `CCOC(=O)CC(=O)[O-]` [MONOETHYLMALONATE], with 6.48 min.

`CN(C)C(N)=NCCCC(N)C(=O)O` (configuration not stated) [N,N-DIMETHYL-ARGININE]: the LC retention time is 2.02 min. As to `CC(=O)NC1C(O)CC(O)(C(=O)O)OC1C(O)C(O)CO` (configuration not stated) [N-ACETYLNEURAMINATE], the LC retention time is 8.33 min.

Take `CC(=O)NC(CCCCN)C(=O)O` (stereo not drawn) [N-ALPHA-ACETYLLYSINE]: the LC retention time is 8.76 min. Then `NC(=O)C1=CN(C2OC(COP(=O)(O)OP(=O)(O)OCC3OC(n4cnc5c(N)ncnc54)C(OP(=O)(O)O)C3O)C(O)C2O)C=CC1` (configuration not stated) [NADPH], with 10.1 min. In the case of `CCCCCCCCC(=O)[O-]` [NONANOATE], the LC retention time was 5.16 min.

As to `O=C(O)CCCC(=O)C(=O)O` [OXOADIPATE], the LC retention time is 8.87 min. As for `O=C(O)CCC(=O)C(=O)O` [OXOGLUTARATE], the LC retention time was 9.21 min. With `OCC1OC(OCC2OC(O)(CO)C(O)C2O)C(O)C(O)C1O` (configuration not stated) [PALATINOSE], the LC retention time was 8.8 min. As to `O=C([O-])c1ccccn1` [PICOLINATE], the LC retention time is 6.41 min.

Turning to `O=C(O)C1(O)CC(O)C(O)C(O)C1` (configuration not stated) [QUINATE], the LC retention time was 8.1 min. The figure for `OCC1OC(OCC2OC(OC3(CO)OC(CO)C(O)C3O)C(O)C(O)C2O)C(O)C(O)C1O` (configuration not stated) [RAFFINOSE] is 9.56 min; for `O=C(O)c1ccccc1O` [SALICYLATE] it is 1.91 min; for `OCC1OC(OCC2OC(OCC3OC(OC4(CO)OC(CO)C(O)C4O)C(O)C(O)C3O)C(O)C(O)C2O)C(O)C(O)C1O` (configuration not stated) [STACHYOSE] it is 10.1 min. For the molecule `O=C(O)C=C(CC(=O)O)C(=O)O` [TRANS-ACONITATE], the LC retention time was 10.5 min. Consider `O=C(O)C1OC(OP(=O)(O)OP(=O)(O)OCC2OC(n3ccc(=O)[nH]c3=O)C(O)C2O)C(O)C(O)C1O` (configuration not stated) [URIDINE DIPHOSPHATE GLUCURONIC ACID], for which the LC retention time was 11 min. The figure for `O=c1ccn(C2OC(COP(=O)(O)O)C(O)C2O)c(=O)[nH]1` (configuration not stated) [URIDINE MONOPHOSPHATE] is 8.67 min; for `OC1COC(O)C(O)C1O` (configuration not stated) [XYLOSE] it is 8.34 min.
